Assay results as given in patent publication US4107299A, “Cardioactive 12-epi-digoxin and derivatives thereof” (Boehringer Mannheim GmbH, priority 1975, dated 1978).
Where two headings read alike, the source gives them in different places.

Tested on: insulated, electrically stimulated left atrium of the guinea pig
Test: Therapeutic effect and therapeutic spectrum at the insulated, electrically stimulated left atrium of the guinea pig
Format: cell-based
Details: mean and average deviation; for EC50 / Emax: Cavia porcellus; for Emax: in percentage of the decrease of the amplitude by reduction of the calcium content (1.8 to 0.45 mVal), read-out: Contraction Amplitude maximum increase (%); for Contraction Amplitude maximum increase: maximum contraction amplitude with increasing glycoside concentrations, calcium reduced from 1.8 to 0.45 mVal, 31° C, 3 Hz; for therapeutic spectrum: quotient EC50 decrease/EC50 increase
Procedure: Comparison of the therapeutic spectrum of various cardioactive glycosides was undertaken, employing electrical stimulation of the insulated left atrium of guinea pigs. Specifically, the left atrium was suspended in Tyrode solution at 31° C and electrically stimulated by a frequency of 3 Hz with rectangular impulses of 2 m sec. duration and optimum tension. The maximum contraction strength was registered semi-isometrically.
When a constant contraction amplitude has set in, the calcium concentration was reduced from 1.8 to 0.45 mVal. The initial tension was adjusted to 1 g at the start of the test; if necessary, it was adjusted after the readjustment to a solution poor in calcium, however, no longer changed during the further course of the experiment.
Of the glycosides to be tested, stock solutions were prepared in dimethyl acetamide and, for the test with NaCl-solution so diluted that the stated end concentrations were obtained with the addition of 0.1 ml to a bath volume of 80 ml. It was determined in preliminary tests that up to 0.4 ml undiluted dimethyl acetamide were tolerated without influencing the contractility.
If, after reduction of the calcium concnetration, a constant degree of contraction was again obtained after approximately 10 minutes, concentrations of the glycoside to be tested were added in the ratio 1 + 1 + 2 + 4, etc. The period between the individual additions was 15 minutes.
Prior to the change-over to a calcium-poor Tyrode solution and prior to each addition of glycoside, as well as 15 minutes after the last dose, the prestress was measured in grams and the contraction amplitude in mg. The difference of the amplitude was calculated from the test values for the contraction amplitude after reduction of the calcium content. The difference between the contraction amplitude before and after the change-over to a calcium-poor solution was put as equal to 100% amplitude reduction.
It was determined for each individual atrium when, with administration of increasing concentrations of the glycosides, there was obtained
the maximum contraction amplitude ("maximum increase");
increase of the amplitude to 50% of the difference between normal and reduced calcium content ("EC50 increase");
decrease of the contraction amplitude to the same height ("EC50 decrease");
the therapeutic spectrum quotient of the two EC50, i.e. EC50 decrease/EC50 increase.
With these evaluation processes, there are obtained numerical data for the concentration and the period during which the corresponding effect was observed. In order to obtain a uniform basis for the evaluation, differences in the time of the appearance were converted into concentrations according to the following method:
The logarithm of the concentration was graphically plotted against the time in such manner that the lowest concentration was put at 15 minutes, the next higher one at 30 minutes, etc. The evaluation of the tests yielded the time after the start of the test at which the respective effect had appeared. The concentration pertaining to it was read from the diagram.
This procedure is based on the assumption that the concentration increases exponentially at the place of the effect. De facto this assumption is more correct than a regular increase in concentration in stages in the bath liquid since there is a substantial time lapse between the increase of the concentration in the bath and in the tissue.
In addition, the maximum degree of […] was measured in all tests under the influence of the glycosides and in percentage of the decrease of the amplitude by reduction of the calcium content.

[1] = decrease of the contraction amplitude to the same height (50%) at higher concentrations, read-out: EC50 decrease
[2] = increase of the amplitude to 50% of the difference between normal and reduced calcium content, read-out: EC50 increase

`C[C@H]1O[C@@H](O[C@H]2[C@@H](O)C[C@H](O[C@H]3[C@@H](O)C[C@H](O[C@H]4CC[C@@]5(C)[C@H](CC[C@@H]6[C@@H]5C[C@H](O)[C@]5(C)[C@@H](C7=CC(=O)OC7)CC[C@]65O)C4)O[C@@H]3C)O[C@@H]2C)C[C@H](O)[C@@H]1O` [Example 1, 12-Epi-digoxin] gave an EC50 [1] of 2.48 ± 0.3 µM, an Emax of 92 ± 6.5% and an EC50 [2] of 0.557 ± 0.07 µM. For the same compound, the “Contraction Amplitude maximum increase” value was 746 ± 56 mg and the therapeutic spectrum was 4.49±0.35.
Work on `CO[C@H]1[C@@H](O)C[C@H](O[C@H]2[C@@H](O)C[C@H](O[C@H]3[C@@H](O)C[C@H](O[C@H]4CC[C@@]5(C)[C@H](CC[C@@H]6[C@@H]5C[C@H](O)[C@]5(C)[C@@H](C7=CC(=O)OC7)CC[C@]65O)C4)O[C@@H]3C)O[C@@H]2C)O[C@@H]1C` [Example 2, 12-Epi-β-methyldigoxin] yielded an EC50 [1] of 2.78 ± 0.4 µM, an Emax of 96 ± 6.3% and an EC50 [2] of 0.315 ± 0.02 µM. For the same compound, the “Contraction Amplitude maximum increase” value was 666 ± 78 mg and the therapeutic spectrum was 8.86±1.17.
`CC(=O)O[C@H]1C[C@H](O[C@H]2[C@@H](O)C[C@H](O[C@H]3[C@@H](O)C[C@H](O[C@H]4CC[C@@]5(C)[C@H](CC[C@@H]6[C@@H]5C[C@H](O)[C@]5(C)[C@@H](C7=CC(=O)OC7)CC[C@]65O)C4)O[C@@H]3C)O[C@@H]2C)O[C@H](C)[C@H]1O` [Example 5, α-Acetyl-12-epi-digoxin] was tested, and the EC50 [1] was 2.78 ± 0.28 µM, the EC50 [2] was 0.848 ± 0.09 µM and the therapeutic spectrum was 3.40±0.40.
For `CC(=O)O[C@H]1[C@@H](O)C[C@H](O[C@H]2[C@@H](O)C[C@H](O[C@H]3[C@@H](O)C[C@H](O[C@H]4CC[C@@]5(C)[C@H](CC[C@@H]6[C@@H]5C[C@H](O)[C@]5(C)[C@@H](C7=CC(=O)OC7)CC[C@]65O)C4)O[C@@H]3C)O[C@@H]2C)O[C@@H]1C` [Example 6, β-Acetyl-12-epi-digoxin], the EC50 [1] was 3.76 ± 0.25 µM, the EC50 [2] was 0.921 ± 0.07 µM and the therapeutic spectrum was 4.25±0.51.
`CC(=O)O[C@H]1C[C@H]2[C@@H](CC[C@@H]3C[C@@H](O[C@H]4C[C@H](O)[C@H](O[C@H]5C[C@H](O)[C@H](O[C@H]6C[C@H](O)[C@H](O)[C@@H](C)O6)[C@@H](C)O5)[C@@H](C)O4)CC[C@@]32C)[C@@]2(O)CC[C@H](C3=CC(=O)OC3)[C@@]12C` [Example 7, 12-Acetyl-12-epi-digoxin] gave an EC50 [1] of 13.8 ± 0.81 µM, an EC50 [2] of 2.86 ± 0.31 µM and a therapeutic spectrum of 5.15±0.71.
With `CCC1=C([C@H]2CC[C@]3(O)[C@@H]4CC[C@@H]5C[C@@H](O[C@H]6C[C@H](O)[C@H](O[C@H]7C[C@H](O)[C@H](O[C@H]8C[C@H](O)[C@H](O)[C@@H](C)O8)[C@@H](C)O7)[C@@H](C)O6)CC[C@]5(C)[C@H]4C[C@H](O)[C@]23C)COC1=O` [Example 9, 22-Ethyl-12-epi-digoxin] the EC50 [1] was 39.3 ± 3 µM, the EC50 [2] was 6.63 ± 0.75 µM and the therapeutic spectrum was 6.39±0.96.
`CO[C@H]1[C@@H](O)C[C@H](O[C@H]2[C@@H](O)C[C@H](O[C@H]3[C@@H](O)C[C@H](O[C@H]4CC[C@@]5(C)[C@H](CC[C@@H]6[C@@H]5C[C@H](O)[C@]5(C)[C@@H](C7=C(C)C(=O)OC7)CC[C@]65O)C4)O[C@@H]3C)O[C@@H]2C)O[C@@H]1C` [Example 12, 22-Methyl-12-epi-β-methyldigoxin] was tested, and the EC50 [1] was 17 ± 1.7 µM, the EC50 [2] was 3.55 ± 0.41 µM and the therapeutic spectrum was 5.15±0.59.
With `CCC1=C([C@H]2CC[C@]3(O)[C@@H]4CC[C@@H]5C[C@@H](O[C@H]6C[C@H](O)[C@H](O[C@H]7C[C@H](O)[C@H](O[C@H]8C[C@H](O)[C@H](OC)[C@@H](C)O8)[C@@H](C)O7)[C@@H](C)O6)CC[C@]5(C)[C@H]4C[C@H](O)[C@]23C)COC1=O` [Example 13, 22-Ethyl-12-epi-β-methyldigoxin] the EC50 [1] was 40.5 ± 2.6 µM, the EC50 [2] was 5.9 ± 0.48 µM and the therapeutic spectrum was 7.10±0.74.
`CO[C@H]1[C@@H](O)C[C@H](O[C@H]2[C@@H](O)C[C@H](O[C@H]3[C@@H](O)C[C@H](O[C@H]4CC[C@@]5(C)[C@H](CC[C@@H]6[C@@H]5C[C@H](O)[C@]5(C)[C@@H](C7=C(C(C)C)C(=O)OC7)CC[C@]65O)C4)O[C@@H]3C)O[C@@H]2C)O[C@@H]1C` [Example 14, 22-Isopropyl-12-epi-β-methyldigoxin] showed an EC50 [1] of 61.9 ± 5.2 µM, an EC50 [2] of 21.6 ± 1.9 µM and a therapeutic spectrum of 3.08±0.45.
For `CO[C@H]1[C@@H](O)C[C@H](O[C@H]2[C@@H](O)C[C@H](O[C@H]3[C@@H](O)C[C@H](O[C@H]4CC[C@@]5(C)[C@H](CC[C@@H]6[C@@H]5C[C@H](OC(C)=O)[C@]5(C)[C@@H](C7=CC(=O)OC7)CC[C@]65O)C4)O[C@@H]3C)O[C@@H]2C)O[C@@H]1C` [Example 18, 12-Acetyl-12-epi-β-methyldigoxin], the EC50 [1] was 25.6 ± 2.9 µM, the EC50 [2] was 4.71 ± 0.81 µM and the therapeutic spectrum was 6.50±1.5.
`C#CCC1=C([C@H]2CC[C@]3(O)[C@@H]4CC[C@@H]5C[C@@H](O[C@H]6C[C@H](O)[C@H](O[C@H]7C[C@H](O)[C@H](O[C@H]8C[C@H](O)[C@H](OC)[C@@H](C)O8)[C@@H](C)O7)[C@@H](C)O6)CC[C@]5(C)[C@H]4C[C@H](O)[C@]23C)COC1=O` [Example 26, 22-Propargyl-12-epi-β-methyldigoxin] was tested, and the EC50 [1] was 14.6 ± 1.4 µM, the EC50 [2] was 4.46 ± 0.75 µM and the therapeutic spectrum was 3.94±1.0.
`CO[C@H]1[C@@H](O)C[C@H](O[C@H]2[C@@H](O)C[C@H](O[C@H]3[C@@H](O)C[C@H](O[C@H]4CC[C@@]5(C)[C@H](CC[C@@H]6[C@@H]5C[C@@H](O)[C@]5(C)[C@@H](C7=CC(=O)OC7)CC[C@]65O)C4)O[C@@H]3C)O[C@@H]2C)O[C@@H]1C` [methyldigoxina., β-methyldigoxin, reference compound] was tested, and the EC50 [1] was 0.66 ± 0.04 µM, the Emax was 75 ± 5% and the EC50 [2] was 0.23 ± 0.03 µM. For the same compound, the “Contraction Amplitude maximum increase” value was 292 ± 56 mg and the therapeutic spectrum was 3.06±0.36.
